According to patent publication US10253052B2, “HBED-bisphosphonates, radiometal conjugates and their use as theranostic agents” (Five Eleven Pharma Inc., priority 2015, dated 2019):
Values joined by “and” are separate entries in the source; they are usually repeats but may differ in a detail not shown here. Equal values may be shown once. “Also recorded” adds a separate entry of the source.

Experiments:
[1] = In vitro binding to hydroxyapatite; conditions: 20 mg hydroxyapatite in saline, 10 min at room temperature
Experimental: Hydroxyapatite (20 mg, Sigma-Aldrich, reagent grade powder) was incubated in isotonic saline (1 mL) for 24 h. Subsequently, either ^68Ga labeled 1a-h, 2, 3, BPAMD, or [^18F]NaF (1 μCi) was added to the hydroxyapatite suspension. After vortexing for 10 seconds, the suspension was incubated for 10 min at room temperature. The samples were then centrifuged at 10,000 rpm for 3 min and the supernatant was removed. The hydroxyapatite fraction was washed twice with saline (1 mL). Radioactivity in the combined supernatants and the hydroxyapatite fraction was measured using a gamma counter. The proportion of the ^68Ga complex binding to hydroxyapatite was determined as percent of ^68Ga absorbed to hydroxyapatite.

[2] = In vivo biodistribution in mice; set-up: species or system normal CD-1 male mice; conditions: for bone to blood ratio / bone to muscle ratio / Biodistribution: Blood / Biodistribution: Bone / Biodistribution: Brain / Biodistribution: Heart / Biodistribution: Kidney / Biodistribution: Liver / Biodistribution: Lung / Biodistribution: Muscle / Biodistribution: Pancreas / Biodistribution: Skin / Biodistribution: Spleen: iv; for Biodistribution result in words (organ uptake, retention, excretion): normal mice after iv injection
Experimental: Biodistribution experiments were performed by intravenously administering ^68Ga labeled 1a-h, 2, 3, BPAMD, and [^18F]NaF into normal, healthy male CD-1 mice (25-30 g). The injection activity was 20-30 μCi/animal. […] Organs of interest were harvested, weighed, and counts of radioactivity were measured by a gamma counter. The biodistribution of each sample was calculated as a percentage of the injected dose per gram of wet tissue weight (% ID/g). Tibia and femur bones were harvested and counted as bone samples.

SMILES: O=C([O-])CN(CCN(CC(=O)[O-])Cc1cc(CCC(=O)NC(P(=O)(O)O)P(=O)(O)O)ccc1[O-])Cc1cc(CCC(=O)NC(P(=O)(O)O)P(=O)(O)O)ccc1[O-].[68Ga+3] [[^68Ga]2]
- Hydroxyapatite Binding (%) [1]: 90.8 ± 1.5%
- bone to blood ratio ([2]; 2 min): 1.1
- bone to muscle ratio ([2]; 2 min): 4.9
- Biodistribution: Blood ([2]; 2 min post injection): 9.97 ± 1.40 % dose/g
- Biodistribution: Bone ([2]; 2 min post injection): 11.0 ± 1.95 % dose/g
- Biodistribution: Brain ([2]; 2 min post injection): 0.30 ± 0.02 % dose/g
- Biodistribution: Heart ([2]; 2 min post injection): 4.13 ± 0.30 % dose/g
- Biodistribution: Kidney ([2]; 2 min post injection): 19.4 ± 1.38 % dose/g
- Biodistribution: Liver ([2]; 2 min post injection): 2.67 ± 0.12 % dose/g
- Biodistribution: Lung ([2]; 2 min post injection): 5.47 ± 0.57 % dose/g
- Biodistribution: Muscle ([2]; 2 min post injection): 2.26 ± 0.34 % dose/g
- Biodistribution: Pancreas ([2]; 2 min post injection): 2.05 ± 0.23 % dose/g
- Biodistribution: Skin ([2]; 2 min post injection): 3.19 ± 0.45 % dose/g
- Biodistribution: Spleen ([2]; 2 min post injection): 2.08 ± 0.22 % dose/g
- bone to blood ratio ([2]; 30 min): 26
- bone to muscle ratio ([2]; 30 min): 58
- Biodistribution: Blood ([2]; 30 min (0.5 hr) post injection): 0.73 ± 0.28 % dose/g
- Biodistribution: Bone ([2]; 30 min (0.5 hr) post injection): 18.8 ± 2.82 % dose/g
- Biodistribution: Brain ([2]; 30 min (0.5 hr) post injection): 0.03 ± 0.00 % dose/g
- Biodistribution: Heart ([2]; 30 min (0.5 hr) post injection): 0.99 ± 0.13 % dose/g
- Biodistribution: Kidney ([2]; 30 min (0.5 hr) post injection): 2.98 ± 1.13 % dose/g
- Biodistribution: Liver ([2]; 30 min (0.5 hr) post injection): 0.44 ± 0.09 % dose/g
- Biodistribution: Lung ([2]; 30 min (0.5 hr) post injection): 0.96 ± 0.23 % dose/g
- Biodistribution: Muscle ([2]; 30 min (0.5 hr) post injection): 0.32 ± 0.05 % dose/g
- Biodistribution: Pancreas ([2]; 30 min (0.5 hr) post injection): 0.36 ± 0.17 % dose/g
- Biodistribution: Skin ([2]; 30 min (0.5 hr) post injection): 0.71 ± 0.13 % dose/g
- Biodistribution: Spleen ([2]; 30 min (0.5 hr) post injection): 0.48 ± 0.09 % dose/g
- bone to blood ratio ([2]; 60 min): 42
- bone to muscle ratio ([2]; 60 min): 82.7 and 83
- Biodistribution: Blood ([2]; 60 min (1 hr) post injection): 0.47 ± 0.08 % dose/g
- Biodistribution: Bone ([2]; 60 min (1 hr) post injection): 19.7±4.2 % dose/g and 19.7 ± 4.17 % dose/g
- Biodistribution: Brain ([2]; 60 min (1 hr) post injection): 0.02 ± 0.00 % dose/g
- Biodistribution: Heart ([2]; 60 min (1 hr) post injection): 0.57 ± 0.13 % dose/g
- Biodistribution: Kidney ([2]; 60 min (1 hr) post injection): 2.61 ± 0.95 % dose/g
- Biodistribution: Liver ([2]; 60 min (1 hr) post injection): 0.43 ± 0.03 % dose/g
- Biodistribution: Lung ([2]; 60 min (1 hr) post injection): 0.58 ± 0.09 % dose/g
- Biodistribution: Muscle ([2]; 60 min (1 hr) post injection): 0.24 ± 0.04 % dose/g
- Biodistribution: Pancreas ([2]; 60 min (1 hr) post injection): 0.27 ± 0.01 % dose/g
- Biodistribution: Skin ([2]; 60 min (1 hr) post injection): 0.38 ± 0.05 % dose/g
- Biodistribution: Spleen ([2]; 60 min (1 hr) post injection): 0.43 ± 0.05 % dose/g
- bone to blood ratio ([2]; 120 min): 77
- bone to muscle ratio ([2]; 120 min): 103
- Biodistribution: Blood ([2]; 120 min post injection): 0.31 ± 0.09 % dose/g
- Biodistribution: Bone ([2]; 120 min post injection): 23.9 ± 5.54 % dose/g
- Biodistribution: Brain ([2]; 120 min post injection): 0.02 ± 0.00 % dose/g
- Biodistribution: Heart ([2]; 120 min post injection): 0.42 ± 0.08 % dose/g
- Biodistribution: Kidney ([2]; 120 min post injection): 2.86 ± 1.16 % dose/g
- Biodistribution: Liver ([2]; 120 min post injection): 0.40 ± 0.03 % dose/g
- Biodistribution: Lung ([2]; 120 min post injection): 0.40 ± 0.05 % dose/g
- Biodistribution: Muscle ([2]; 120 min post injection): 0.23 ± 0.05 % dose/g
- Biodistribution: Pancreas ([2]; 120 min post injection): 0.31 ± 0.11 % dose/g
- Biodistribution: Skin ([2]; 120 min post injection): 0.33 ± 0.06 % dose/g
- Biodistribution: Spleen ([2]; 120 min post injection): 0.43 ± 0.24 % dose/g
- Biodistribution result in words (organ uptake, retention, excretion) [2]: excellent bone uptake and fast kidney excretion; also recorded: excellent bone uptake and retention

SMILES: O=C([O-])CN(CCN(CC(=O)[O-])Cc1cc(CCC(=O)NC(P(=O)(O)O)P(=O)(O)O)ccc1[O-])Cc1cc(CCC(=O)NCCCNC(=O)CCc2ccc(O)c(CN(CCN(CC(=O)O)Cc3cc(CCC(=O)NC(P(=O)(O)O)P(=O)(O)O)ccc3O)CC(=O)O)c2)ccc1[O-].[68Ga+3] [[^68Ga]3]
- Hydroxyapatite Binding (%) [1]: 95.8 ± 0.1%
- bone to blood ratio ([2]; 2 min): 0.5
- bone to muscle ratio ([2]; 2 min): 2.6
- Biodistribution: Blood ([2]; 2 min post injection): 8.33 ± 0.23 % dose/g
- Biodistribution: Bone ([2]; 2 min post injection): 4.17 ± 0.35 % dose/g
- Biodistribution: Brain ([2]; 2 min post injection): 0.28 ± 0.03 % dose/g
- Biodistribution: Heart ([2]; 2 min post injection): 3.45 ± 0.25 % dose/g
- Biodistribution: Kidney ([2]; 2 min post injection): 12.2 ± 1.51 % dose/g
- Biodistribution: Liver ([2]; 2 min post injection): 19.7 ± 1.05 % dose/g
- Biodistribution: Lung ([2]; 2 min post injection): 71.6 ± 6.33 % dose/g
- Biodistribution: Muscle ([2]; 2 min post injection): 1.62 ± 0.47 % dose/g
- Biodistribution: Pancreas ([2]; 2 min post injection): 1.73 ± 0.08 % dose/g
- Biodistribution: Skin ([2]; 2 min post injection): 1.24 ± 0.01 % dose/g
- Biodistribution: Spleen ([2]; 2 min post injection): 12.8 ± 4.35 % dose/g
- bone to blood ratio ([2]; 30 min): 4.8
- bone to muscle ratio ([2]; 30 min): 14
- Biodistribution: Blood ([2]; 30 min (0.5 hr) post injection): 1.92 ± 0.15 % dose/g
- Biodistribution: Bone ([2]; 30 min (0.5 hr) post injection): 9.26 ± 1.45 % dose/g
- Biodistribution: Brain ([2]; 30 min (0.5 hr) post injection): 0.06 ± 0.01 % dose/g
- Biodistribution: Heart ([2]; 30 min (0.5 hr) post injection): 2.02 ± 0.97 % dose/g
- Biodistribution: Kidney ([2]; 30 min (0.5 hr) post injection): 17.1 ± 0.70 % dose/g
- Biodistribution: Liver ([2]; 30 min (0.5 hr) post injection): 9.86 ± 0.66 % dose/g
- Biodistribution: Lung ([2]; 30 min (0.5 hr) post injection): 15.6 ± 1.39 % dose/g
- Biodistribution: Muscle ([2]; 30 min (0.5 hr) post injection): 0.68 ± 0.09 % dose/g
- Biodistribution: Pancreas ([2]; 30 min (0.5 hr) post injection): 1.07 ± 1.04 % dose/g
- Biodistribution: Skin ([2]; 30 min (0.5 hr) post injection): 1.10 ± 0.18 % dose/g
- Biodistribution: Spleen ([2]; 30 min (0.5 hr) post injection): 8.33 ± 2.22 % dose/g
- bone to blood ratio ([2]; 60 min): 13
- bone to muscle ratio ([2]; 60 min): 16
- Biodistribution: Blood ([2]; 60 min (1 hr) post injection): 0.70 ± 0.13 % dose/g
- Biodistribution: Bone ([2]; 60 min (1 hr) post injection): 9.26 ± 1.13 % dose/g
- Biodistribution: Brain ([2]; 60 min (1 hr) post injection): 0.06 ± 0.01 % dose/g
- Biodistribution: Heart ([2]; 60 min (1 hr) post injection): 1.16 ± 0.13 % dose/g
- Biodistribution: Kidney ([2]; 60 min (1 hr) post injection): 7.99 ± 1.08 % dose/g
- Biodistribution: Liver ([2]; 60 min (1 hr) post injection): 23.5 ± 3.13 % dose/g
- Biodistribution: Lung ([2]; 60 min (1 hr) post injection): 41.3 ± 5.15 % dose/g
- Biodistribution: Muscle ([2]; 60 min (1 hr) post injection): 0.57 ± 0.14 % dose/g
- Biodistribution: Pancreas ([2]; 60 min (1 hr) post injection): 0.26 ± 0.02 % dose/g
- Biodistribution: Skin ([2]; 60 min (1 hr) post injection): 0.41 ± 0.02 % dose/g
- Biodistribution: Spleen ([2]; 60 min (1 hr) post injection): 10.3 ± 2.65 % dose/g
- bone to blood ratio ([2]; 120 min): 29
- bone to muscle ratio ([2]; 120 min): 39
- Biodistribution: Blood ([2]; 120 min post injection): 0.37 ± 0.07 % dose/g
- Biodistribution: Bone ([2]; 120 min post injection): 10.6 ± 0.85 % dose/g
- Biodistribution: Brain ([2]; 120 min post injection): 0.05 ± 0.01 % dose/g
- Biodistribution: Heart ([2]; 120 min post injection): 1.05 ± 0.11 % dose/g
- Biodistribution: Kidney ([2]; 120 min post injection): 8.99 ± 0.20 % dose/g
- Biodistribution: Liver ([2]; 120 min post injection): 25.4 ± 2.80 % dose/g
- Biodistribution: Lung ([2]; 120 min post injection): 34.8 ± 1.90 % dose/g
- Biodistribution: Muscle ([2]; 120 min post injection): 0.28 ± 0.04 % dose/g
- Biodistribution: Pancreas ([2]; 120 min post injection): 0.25 ± 0.03 % dose/g
- Biodistribution: Skin ([2]; 120 min post injection): 0.33 ± 0.06 % dose/g
- Biodistribution: Spleen ([2]; 120 min post injection): 15.7 ± 1.59 % dose/g
- Biodistribution result in words (organ uptake, retention, excretion) [2]: high liver uptake and less bone localization
